Where two headings read alike, the source gives them in different places.
Experiments:
[1] = target: T1, Acetylcholinesterase (eeAChE, E.C. 3.1.1.7) (Electrophorus electricus, UniProt O42275); assay: biochemical; type: biochemical, electric eel; conditions: for IC50: eeAChE; for Selectivity IC50(eeAChE)/ IC50(BChE): ratio of IC50 values
T1 construct: purchased Sigma Aldrich
Description: (§1) [33] Inhibitory activity was tested at room temperature on 96-well plate using Ellman’s method. Lyophilised powders of AChE and BChE were dissolved in phosphate buffer (pH 7.5, 0.1 M) with 1% BSA.
(§2) Each well was filled to a total volume of 330 µL. The content inculded 285 µL of phosphate buffer, 5 µL 2 units/mL of eeAChE/BChE, 10 µL 0.01 M of DTNB, 10 µl of tested compound (for the control wells 10 µL of the phosphate buffer instead of tested compound) and 20 µL (7.5 mM) ATCh/BTCh. The hydrolysis of ATCh/BTCh was initiated by adding it to the well directly before the measurement. The absorbance was recorded at 1 min intervals for 8 min in total. The percent of inhibition was calculated by nonlinear regression analysis of the response–concentration (log) curve as a percentage of the reaction rate of the tested compounds over the control. Data analysis was performed by using GraphPad Prism 5.0 Software to give the IC50 values. The experiment was carried out in triplicate.

[2] = target: T2, butyrylcholinesterase (BChE, E.C. 3.1.1.8) (Equus caballus, UniProt P81908); assay: biochemical; parameters: species or system equine serum; conditions: for IC50: BChE from equine serum
T2 construct: purchased Sigma Aldrich
Description: as §1, §2

in vitro [3] = type: cell-based, human; conditions: human; MTT, 24 h incubation; read-out: Cytotoxicity on HepG2 cells IC50
Description: (§3) Human neuroblastoma SH-SY5Y and human liver hepatocellular HepG2 cell lines were purchased from the American Type Culture Collections (ATCC). SH-SY5Y cells were cultured in a Dulbecco’s Modified Eagle Medium (DMEM) supplemented with Ham F12 medium (ratio 1:1), whereas HepG2 cells in Eagle’s Minimum Essential Medium (EMEM). Additionally, all culture medium was supplemented with 10% foetal bovine serum (FBS), streptomycin (100 µg/mL) and penicillin (100 U/mL). The cells were seeded into flasks containing supplemented medium and maintained in a humidified atmosphere of 5% CO2 and 95% air at 37 °C. The cell viability assay was performed in confluence of the cells in serum free medium (without FBS) was 80–90%.
(§4) […]. SH-SY5Y cells and HepG2 cells were seeded on 96-well plate with a density of 27–29 × 10^3 cells/well and 12–14 × 10^3/well respectively. […]. The DMSO concentration of every well in final dilutions was equal to or less than 0.1%. After incubation with compounds, MTT was added and 2 h later, the absorbance was measured at 492 nm. The result was expressed as the percentage of control cells (cultured in serum-free medium containing 0.1% of DMSO) which was set to 100%. The MTT test was performed in three independent replications. Data analysis was performed by using GraphPad Prism 5.0 Software.
(§5) . HepG2 is a commonly used in vitro model for the investigation of hepatocytotoxic effect of xenobiotics [40]^,[41]. In our study, we evaluated the toxicity of our new analogs against […]. […]

in vitro [4] = type: cell-based, human; conditions: human, 24 h incubation, MTT, mean ± SD, read-out: Cells viability of SH-SY5Y cell line (% of control)
Description: as §3, §4
(§6) SH-SY5Y a standard cell line used for determining neurocytotoxic effect of potential drug. Moreover it is well-established in vitro model of neurodegenerative disorders. […].

SH-SY5Y cells = assay: in vitro; type: cell-based, human; conditions: 100 µM, 24 h incubation, MTT, mean ± SD
Description: as §3, §4, §6

HepG2 cells = assay: in vitro; type: cell-based, human; conditions: HepG2 cells
Description: as §3, §4, §5

[5] = IC50 AChE, Ellman's method, phosphate buffer pH 7.5, room temperature
[6] = pIC50 ± S.E.M. AChE, value in brackets under the IC50
[7] = IC50 BChE, Ellman's method, phosphate buffer pH 7.5, room temperature
[8] = pIC50 ± S.E.M. BChE, value in brackets under the IC50
[9] = Ellman's method, phosphate buffer pH 7.5, room temperature, read-out: IC50 AChE
[10] = value in brackets under the IC50, read-out: pIC50 ± S.E.M. AChE (converted)
[11] = Ellman's method, phosphate buffer pH 7.5, room temperature, read-out: IC50 BChE
[12] = value in brackets under the IC50, read-out: pIC50 ± S.E.M. BChE (converted)
[13] = from IC50 values, versus tacrine

T2 sequence (P81908 whole entry): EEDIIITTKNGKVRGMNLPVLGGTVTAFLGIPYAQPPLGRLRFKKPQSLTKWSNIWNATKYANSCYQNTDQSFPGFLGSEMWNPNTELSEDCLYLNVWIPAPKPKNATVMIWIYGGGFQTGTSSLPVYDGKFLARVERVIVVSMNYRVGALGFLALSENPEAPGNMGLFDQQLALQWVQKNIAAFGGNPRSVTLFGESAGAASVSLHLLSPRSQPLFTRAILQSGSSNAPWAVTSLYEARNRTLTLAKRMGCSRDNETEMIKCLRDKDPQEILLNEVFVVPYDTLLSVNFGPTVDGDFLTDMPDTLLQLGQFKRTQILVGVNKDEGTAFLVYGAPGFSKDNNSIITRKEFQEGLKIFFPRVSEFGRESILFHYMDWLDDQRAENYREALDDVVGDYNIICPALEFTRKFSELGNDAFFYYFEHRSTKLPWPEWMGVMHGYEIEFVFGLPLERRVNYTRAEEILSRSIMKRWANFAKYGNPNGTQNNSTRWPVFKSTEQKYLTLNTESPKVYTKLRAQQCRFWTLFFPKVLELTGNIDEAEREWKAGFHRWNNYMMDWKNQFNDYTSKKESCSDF
T1 sequence (O42275 24-633): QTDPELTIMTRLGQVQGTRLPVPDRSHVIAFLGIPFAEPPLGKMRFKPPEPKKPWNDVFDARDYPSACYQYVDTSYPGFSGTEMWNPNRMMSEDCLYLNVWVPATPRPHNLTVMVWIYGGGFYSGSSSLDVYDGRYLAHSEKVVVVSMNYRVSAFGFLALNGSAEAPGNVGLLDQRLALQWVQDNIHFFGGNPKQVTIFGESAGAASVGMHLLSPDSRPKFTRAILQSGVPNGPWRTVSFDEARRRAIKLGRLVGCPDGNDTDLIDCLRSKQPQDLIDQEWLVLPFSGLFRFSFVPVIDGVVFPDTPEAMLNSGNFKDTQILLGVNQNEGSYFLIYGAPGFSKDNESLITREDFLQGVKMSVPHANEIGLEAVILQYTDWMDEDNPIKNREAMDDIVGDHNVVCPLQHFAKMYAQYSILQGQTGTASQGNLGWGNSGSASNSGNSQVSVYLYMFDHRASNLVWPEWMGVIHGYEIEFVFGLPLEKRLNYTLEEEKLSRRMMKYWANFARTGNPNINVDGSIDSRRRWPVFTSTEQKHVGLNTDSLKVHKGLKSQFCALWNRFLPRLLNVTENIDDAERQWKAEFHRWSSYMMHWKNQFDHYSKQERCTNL

SMILES | IC50 [1, 5] [nM] | IC50 [1, 6] [nM] | Selectivity IC50(eeAChE)/ IC50(BChE) [1] | IC50 [2, 7] [nM] | IC50 [2, 8] [nM] | IC50 at 24 h (in vitro [3]) [nM] | viability at 24 h, 12.5 µM (in vitro [4]) [%] | viability at 24 h, 50 µM (in vitro [4]) [%] | viability at 24 h, 100 µM (in vitro [4]) [%] | IC50 [1, 9] [nM] | IC50 [1, 10] [nM] | IC50 [2, 11] [nM] | IC50 [2, 12] [nM] | IC50 (in vitro [3]) [nM] | viability at 12.5 µM (in vitro [4]) [%] | viability at 50 µM (in vitro [4]) [%] | viability at 100 µM (in vitro [4]) [%] | further results
CCOP(=O)(NCCCCCCNc1c2c(nc3ccccc13)CCCC2)OCC [Compound 6, Diethyl(6-((1,2,3,4-tetrahydroacridin-9-yl)amino)hexyl)phosphoramidate] | 32.6 | 32.6 | 4.82 | 6.75 | 6.76 | 140000 | 74.3 ± 4.9 | 71.7 ± 7.2 | 67.5 ± 9 | – | – | – | – | – | – | – | – | –
O=P(NCCCCCCNc1c2c(nc3ccccc13)CCCC2)(Oc1ccccc1)Oc1ccccc1 [Compound 7, Diphenyl(6-((1,2,3,4-tetrahydroacridin-9-yl)amino)hexyl)phosphoramidate] | – | – | 3.04 | – | – | – | – | – | – | 125 | 125 | 41.1 | 41.1 | 14600 | 47.4 ± 1.2 | 41.3 ± 1.5 | 30.1 ± 5 | –
CCOP(=O)(NCCCCCCCCNc1c2c(nc3ccccc13)CCCC2)OCC [Compound 8, Diethyl(8-((1,2,3,4-tetrahydroacridin-9-yl)amino)octyl)phosphoramidate] | 6.11 | 6.11 | 0.48 | 12.9 | 12.9 | 23700 | 76.7 ± 5.8 | 51.6 ± 5.4 | 52.2 ± 1 | – | – | – | – | – | – | – | – | fold more potent than tacrine against AChE [1, 13]: 6 fold
CCCCOP(=O)(NCCCCCCCCNc1c2c(nc3ccccc13)CCCC2)OCCCC [Compound 9, Dibutyl(8-((1,2,3,4-tetrahydroacridin-9-yl)amino)octyl)phosphoramidate] | 8.18 | 8.18 | 0.2 | 41.5 | 41.5 | 43300 | 77.5 ± 13.5 | 55.7 ± 11.5 | 54.6 ± 8.4 | – | – | – | – | – | – | – | – | –
O=P(NCCCCCCCCNc1c2c(nc3ccccc13)CCCC2)(Oc1ccccc1)Oc1ccccc1 [Compound 10, Diphenyl(8-((1,2,3,4-tetrahydroacridin-9-yl)amino)octyl)phosphoramidate] | – | – | 0.24 | – | – | – | – | – | – | 44.2 | 44.3 | 188 | 188 | 7150 | 80.1 ± 16.8 | 63.7 ± 5.7 | 48.1 ± 8.1 | –
CCOP(=O)(NCCCCCCCCCCCCNc1c2c(nc3ccccc13)CCCC2)OCC [Compound 11, Diethyl(12-((1,2,3,4-tetrahydroacridin-9-yl)amino)dodecyl)phosphoramidate] | – | – | 0.51 | – | – | – | – | – | – | 33.3 | 33.3 | 65.5 | 65.5 | 50 | 35.4 ± 4.6 | 35.5 ± 4.1 | 31.1 ± 6.4 | –
CCCCOP(=O)(NCCCCCCCCCCCCNc1c2c(nc3ccccc13)CCCC2)OCCCC [Compound 12, Dibutyl(12-((1,2,3,4-tetrahydroacridin-9-yl)amino)dodecyl)phosphoramidate] | 16.3 | 16.3 | 0.27 | 61.2 | 61.2 | 20800 | 69.3 ± 3.7 | 52.1 ± 3.1 | 53.5 ± 5.8 | – | – | – | – | – | – | – | – | –
O=P(NCCCCCCCCCCCCNc1c2c(nc3ccccc13)CCCC2)(Oc1ccccc1)Oc1ccccc1 [Compound 13, Diphenyl(12-((1,2,3,4-tetrahydroacridin-9-yl)amino)dodecyl)phosphoramidate] | 9.96 | 9.95 | 5.06 | 1.97 | 1.97 | – | 40.4 ± 7.6 | 38.4 ± 7.6 | 38 ± 3.8 | – | – | – | – | – | – | – | – | fold more potent than tacrine against BChE [2, 13]: 12 fold
CCOP(=O)(OCC)OCCCNc1c2c(nc3ccccc13)CCCC2 [Compound 16, Diethyl(3-((1,2,3,4-tetrahydroacridin-9-yl)amino)propyl)phosphate] | – | – | 14.36 | – | – | – | – | – | – | 246 | 245 | 17.1 | 17.1 | 114000 | 88.1 ± 7.8 | 80 ± 7.7 | 83.5 | Cells viability of SH-SY5Y cell line (% of control) (SH-SY5Y cells): 83.47 ± 8.6 % of control
CCCCOP(=O)(OCCCC)OCCCNc1c2c(nc3ccccc13)CCCC2 [Compound 17, Dibutyl(3-((1,2,3,4-tetrahydroacridin-9-yl)amino)propyl)phosphate] | 110 | 110 | 3.78 | 29.1 | 29.1 | 72300 | 94.4 ± 5.1 | 67.7 ± 14.7 | 63.2 ± 12.2 | – | – | – | – | – | – | – | – | –
O=P(OCCCNc1c2c(nc3ccccc13)CCCC2)(Oc1ccccc1)Oc1ccccc1 [Compound 18, Diphenyl(3-((1,2,3,4-tetrahydroacridin-9-yl)amino)propyl)phosphate] | 58.6 | 58.6 | 1.55 | 37.7 | – | 53800 | 79.5 ± 7.4 | 71.2 ± 20.5 | 59 ± 20.3 | – | – | – | – | – | – | – | – | –
CCOP(=O)(OCC)OCCNCCNc1c2c(nc3ccccc13)CCCC2 [Compound 19, Diethyl(2-((2-((1,2,3,4-tetrahydroacridin-9-yl)amino)ethyl)amino)ethyl)phosphate] | – | – | 6.08 | – | – | – | – | – | – | 677 | 676 | 111 | 112 | > 600000 | 85.5 ± 12.6 | 82.6 ± 3.2 | 81.1 | hepatocytotoxicity in MTT assay (in words) (HepG2 cells): lack of hepatocytotoxicity; Cells viability of SH-SY5Y cell line (% of control) (SH-SY5Y cells): 81.12 ± 5.0 % of control
CCCCOP(=O)(OCCCC)OCCNCCNc1c2c(nc3ccccc13)CCCC2 [Compound 20, Dibutyl(2-((2-((1,2,3,4-tetrahydroacridin-9-yl)amino)ethyl)amino)ethyl)phosphate] | 81.6 | 81.5 | 0.44 | 186 | – | 134000 | 78.9 ± 8.6 | 79.7 ± 1.1 | 68.6 ± 14.5 | – | – | – | – | – | – | – | – | –
O=P(OCCNCCNc1c2c(nc3ccccc13)CCCC2)(Oc1ccccc1)Oc1ccccc1 [Compound 21, Diphenyl(2-((2-((1,2,3,4-tetrahydroacridin-9-yl)amino)ethyl)amino)ethyl)phosphate] | 501 | 501 | 12.22 | 41 | 41 | – | 52.3 ± 5 | 42.7 ± 6.4 | 30.7 ± 1.5 | – | – | – | – | – | – | – | – | –
